Experimental data: paper PMC6592262, “Isolation and functional characterization of two dioxygenases putatively involved in bixin biosynthesis in annatto (Bixa orellana L.)” (PeerJ, 2019)

Biological target: T1, BoCCD4-3 (Bixa orellana, UniProt A0A140CWS5)
T1 construct: gene CCD4-3; complete ORF (1,785 bp amplicon, predicted 30-residue transit peptide kept) in pDEST17, arabinose-induced in lycopene-accumulating E. coli BL21 (pACCRTEIB); cells or crude cell-free extract, not purified
Test: cleavage in lycopene-accumulating E. coli and in cell-free extract; HPLC, UHPLC-ESI-QTOF-MS/MS, FTIR
Assay type: biochemical
Conditions: 1 mM lycopene added 1:1 to extract, 22 °C, up to 5 min; product bixin aldehyde (m/z 349.2), 5,6/5',6' cleavage; crude extract

T1 sequence (A0A140CWS5 entry or part of it): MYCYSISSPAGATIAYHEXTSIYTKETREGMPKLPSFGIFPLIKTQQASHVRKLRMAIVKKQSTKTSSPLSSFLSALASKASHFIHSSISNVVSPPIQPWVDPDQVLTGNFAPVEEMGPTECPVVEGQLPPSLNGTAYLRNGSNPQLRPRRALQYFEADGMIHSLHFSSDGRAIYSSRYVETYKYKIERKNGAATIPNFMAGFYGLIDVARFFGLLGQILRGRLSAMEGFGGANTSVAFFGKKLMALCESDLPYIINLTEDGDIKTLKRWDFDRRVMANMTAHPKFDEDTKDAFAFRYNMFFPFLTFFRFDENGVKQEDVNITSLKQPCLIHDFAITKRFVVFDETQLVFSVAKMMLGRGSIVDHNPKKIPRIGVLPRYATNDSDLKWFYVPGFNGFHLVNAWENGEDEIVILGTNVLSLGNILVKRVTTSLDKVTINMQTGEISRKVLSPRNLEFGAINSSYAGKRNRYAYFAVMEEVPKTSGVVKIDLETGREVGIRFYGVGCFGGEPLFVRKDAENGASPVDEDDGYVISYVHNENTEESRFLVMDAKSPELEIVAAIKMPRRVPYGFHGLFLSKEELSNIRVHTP

Structure (SMILES): CC(C)=CCC/C(C)=C/C=C/C(C)=C/C=C/C(C)=C/C=C/C=C(C)/C=C/C=C(C)/C=C/C=C(\C)CCC=C(C)C [lycopene]
- cleavage in lycopene-accumulating E. coli and in cell-free extract; HPLC, UHPLC-: BoCCD4-3 is also able to cleave lycopene into bixin aldehyde, but at lower efficiency
